Reference: publication PMC7413254 (Nature Communications, 2020)

How the values were obtained:
Assay type in all cases: cell-based
PfCRT^Dd2 [1] = molecular target: T1, PfCRT^Dd2 (Plasmodium falciparum, UniProt Q9N623, A220S/I356T/K76T/M74I/N326S/N75E/Q271E/R371I); test: cell-based; conditions: for PfCRT-mediated [3H]CQ transport, trans-stimulation (% PfCRTDd2 control): PfCRTDd2 oocytes, normalised to oocyte type control; for [3H]CQ transport (% PfCRTDd2 control), trans-stimulation, PfCRTDd2: PfCRT-mediated component (background subtracted), mean ± SEM, SEM
T1 sequence (Q9N623 whole entry A220S/I356T/K76T/M74I/N326S/N75E/Q271E/R371I): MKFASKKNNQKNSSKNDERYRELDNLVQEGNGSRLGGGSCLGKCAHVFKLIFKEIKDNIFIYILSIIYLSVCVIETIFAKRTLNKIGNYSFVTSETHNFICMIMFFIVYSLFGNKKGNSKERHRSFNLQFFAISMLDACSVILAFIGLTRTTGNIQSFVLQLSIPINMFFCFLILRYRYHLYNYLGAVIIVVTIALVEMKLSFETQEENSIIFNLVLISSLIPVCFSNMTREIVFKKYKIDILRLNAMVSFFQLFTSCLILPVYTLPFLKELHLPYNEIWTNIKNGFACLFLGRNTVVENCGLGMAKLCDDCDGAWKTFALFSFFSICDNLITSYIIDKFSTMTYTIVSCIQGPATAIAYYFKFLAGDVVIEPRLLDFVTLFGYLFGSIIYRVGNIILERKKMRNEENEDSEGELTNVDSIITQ
Outline: (§1)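 Transport measured in Xenopus oocytes expressing the transporters, 1.5 h at 27.5 °C in ND96 pH 5.5 unless noted. For trans-stimulation, VF-6 injected in 25 nL ND96 at pH 5.0–7.0 or Na^+-free (choline) buffer; intracellular levels based on ~400 nL oocyte volume. Ten oocytes per treatment, ≥4 experiments.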

PfCRT^3D7 = PfCRT^3D7 (Plasmodium falciparum, UniProt Q8IBZ9); test: cell-based; conditions: PfCRT3D7 oocytes, normalised to oocyte type control
PfCRT^3D7, sequence (Q8IBZ9 59-398): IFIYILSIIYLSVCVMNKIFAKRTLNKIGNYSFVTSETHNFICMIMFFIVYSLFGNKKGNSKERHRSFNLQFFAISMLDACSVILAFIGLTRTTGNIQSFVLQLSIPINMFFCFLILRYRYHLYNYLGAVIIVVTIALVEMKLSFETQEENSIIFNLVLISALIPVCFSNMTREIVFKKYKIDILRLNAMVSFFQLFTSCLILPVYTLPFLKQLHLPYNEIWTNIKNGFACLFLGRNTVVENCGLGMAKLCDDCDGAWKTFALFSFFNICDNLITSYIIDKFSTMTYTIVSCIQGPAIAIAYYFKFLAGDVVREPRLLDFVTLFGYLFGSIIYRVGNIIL
Outline: as §1

PfCRT^Ecu1110 [2] = molecular target: T2, PfCRT^Ecu1110 (Plasmodium falciparum, UniProt Q9N623, A220S/I356L/K76T/N326D); test: cell-based; conditions: for PfCRT-mediated [3H]CQ transport, trans-stimulation (% PfCRTEcu1110 control): PfCRTEcu1110 oocytes, normalised to oocyte type control; for [3H]CQ transport (% PfCRTDd2 control), trans-stimulation, PfCRTEcu1110: PfCRT-mediated component (background subtracted), sheet title says normalised to PfCRTDd2 control, mean ± SEM, SEM
T2 sequence (Q9N623 whole entry A220S/I356L/K76T/N326D): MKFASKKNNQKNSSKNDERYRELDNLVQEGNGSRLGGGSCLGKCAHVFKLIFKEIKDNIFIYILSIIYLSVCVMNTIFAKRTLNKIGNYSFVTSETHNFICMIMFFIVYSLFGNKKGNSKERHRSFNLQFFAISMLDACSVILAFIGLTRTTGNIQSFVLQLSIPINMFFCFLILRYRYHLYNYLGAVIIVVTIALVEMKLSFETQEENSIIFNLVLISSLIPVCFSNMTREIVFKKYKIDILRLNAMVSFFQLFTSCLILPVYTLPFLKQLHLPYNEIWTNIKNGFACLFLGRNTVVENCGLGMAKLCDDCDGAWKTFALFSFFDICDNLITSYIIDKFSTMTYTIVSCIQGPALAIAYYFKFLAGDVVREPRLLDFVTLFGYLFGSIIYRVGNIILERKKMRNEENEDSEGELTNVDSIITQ
Outline: as §1

PfCRT^Dd2 [3] = molecular target: T1, PfCRT^Dd2; test: [3H]CQ uptake into Xenopus oocytes, cis-inhibition by unlabelled solute; conditions: PfCRTDd2 oocytes, background [3H]CQ accumulation subtracted, normalised to oocyte type control
Outline: (§2)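 Washed oocytes (ten per treatment) were exposed to label in pH 5.5 ND96 for 1.5 h at 27.5 °C. Buffer was then removed, cells rinsed in ice-cold ND96, lysed in SDS and counted.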

PfCRT^Ecu1110 [4] = molecular target: T2, PfCRT^Ecu1110; test: as above; conditions: for PfCRT-mediated [3H]CQ transport, cis-inhibition (% PfCRTEcu1110 control): PfCRTEcu1110 oocytes, background [3H]CQ accumulation subtracted, normalised to oocyte type control; for [3H]CQ transport (% PfCRTEcu1110 control), cis-inhibition, PfCRTEcu1110: PfCRT-mediated component (background subtracted), sheet title says normalised to PfCRTDd2 control, mean ± SEM, SEM
Outline: as §2

[5] = [test solute]i = 5 mM (intracellular)
[6] = [test solute]i = 45 mM (intracellular; 30 mM for some solutes due to solubility)
[7] = [test solute]i = 5 mM (injected)
[8] = [test solute]i = 45 mM (30 mM for some solutes due to solubility)

EFTPPVQ [EQ-7]
PfCRT-mediated [3H]CQ transport, trans-stimulation (% PfCRTDd2 control) (PfCRT^Dd2 [1]; [5]): 96 ± 3.3 % PfCRTDd2 control | PfCRT-mediated [3H]CQ transport, trans-stimulation (% PfCRTDd2 control) (PfCRT^Dd2 [1]; [6]): 112 ± 3.2 % PfCRTDd2 control | [3H]CQ transport (% PfCRTDd2 control), trans-stimulation, PfCRTDd2 (PfCRT^Dd2 [1]; [7]): 96 ± 3.3 % PfCRTDd2 control | [3H]CQ transport (% PfCRTDd2 control), trans-stimulation, PfCRTDd2 (PfCRT^Dd2 [1]; [8]): 112 ± 3.2 % PfCRTDd2 control | PfCRT-mediated [3H]CQ transport, trans-stimulation (% PfCRT3D7 control) (PfCRT^3D7; [5]): 136 ± 4.2 % PfCRT3D7 control | PfCRT-mediated [3H]CQ transport, trans-stimulation (% PfCRT3D7 control) (PfCRT^3D7; [6]): 188 ± 4.7 % PfCRT3D7 control | PfCRT-mediated [3H]CQ transport, trans-stimulation (% PfCRTEcu1110 control) (PfCRT^Ecu1110 [2]; [5]): 129 ± 4.5 % PfCRTEcu1110 control | PfCRT-mediated [3H]CQ transport, trans-stimulation (% PfCRTEcu1110 control) (PfCRT^Ecu1110 [2]; [6]): 136 ± 2.7 % PfCRTEcu1110 control | [3H]CQ transport (% PfCRTDd2 control), trans-stimulation, PfCRTEcu1110 (PfCRT^Ecu1110 [2]; [7]): 39 ± 1.5 % PfCRTEcu1110 control | [3H]CQ transport (% PfCRTDd2 control), trans-stimulation, PfCRTEcu1110 (PfCRT^Ecu1110 [2]; [8]): 41 ± 1.8 % PfCRTEcu1110 control | PfCRT-mediated [3H]CQ transport, cis-inhibition (% PfCRTDd2 control) (PfCRT^Dd2 [3]; [test solute] = 0.5 mM): 40 ± 1.1 % PfCRTDd2 control | PfCRT-mediated [3H]CQ transport, cis-inhibition (% PfCRTDd2 control) (PfCRT^Dd2 [3]; [test solute] = 1 mM): 28 ± 0.2 % PfCRTDd2 control | PfCRT-mediated [3H]CQ transport, cis-inhibition (% PfCRTDd2 control) (PfCRT^Dd2 [3]; [test solute] = 2 mM): 17 ± 1.1 % PfCRTDd2 control | PfCRT-mediated [3H]CQ transport, cis-inhibition (% PfCRTEcu1110 control) (PfCRT^Ecu1110 [4]; [test solute] = 0.5 mM): 44 ± 1.4 % PfCRTEcu1110 control | PfCRT-mediated [3H]CQ transport, cis-inhibition (% PfCRTEcu1110 control) (PfCRT^Ecu1110 [4]; [test solute] = 1 mM): 32 ± 2.4 % PfCRTEcu1110 control | PfCRT-mediated [3H]CQ transport, cis-inhibition (% PfCRTEcu1110 control) (PfCRT^Ecu1110 [4]; [test solute] = 2 mM): 22 ± 2.9 % PfCRTEcu1110 control | [3H]CQ transport (% PfCRTEcu1110 control), cis-inhibition, PfCRTEcu1110 (PfCRT^Ecu1110 [4]; [test solute] = 0.5 mM): 14 ± 0.6 % PfCRTEcu1110 control | [3H]CQ transport (% PfCRTEcu1110 control), cis-inhibition, PfCRTEcu1110 (PfCRT^Ecu1110 [4]; [test solute] = 1 mM): 10 ± 0.5 % PfCRTEcu1110 control | [3H]CQ transport (% PfCRTEcu1110 control), cis-inhibition, PfCRTEcu1110 (PfCRT^Ecu1110 [4]; [test solute] = 2 mM): 8.0 ± 0.03 % PfCRTEcu1110 control

FPHFDLS [FS-7]
PfCRT-mediated [3H]CQ transport, trans-stimulation (% PfCRTDd2 control) (PfCRT^Dd2 [1]; [5]): 95 ± 4.2 % PfCRTDd2 control | PfCRT-mediated [3H]CQ transport, trans-stimulation (% PfCRTDd2 control) (PfCRT^Dd2 [1]; [6]): 98 ± 4.1 % PfCRTDd2 control | [3H]CQ transport (% PfCRTDd2 control), trans-stimulation, PfCRTDd2 (PfCRT^Dd2 [1]; [7]): 95 ± 4.2 % PfCRTDd2 control | [3H]CQ transport (% PfCRTDd2 control), trans-stimulation, PfCRTDd2 (PfCRT^Dd2 [1]; [8]): 98 ± 4.1 % PfCRTDd2 control | PfCRT-mediated [3H]CQ transport, trans-stimulation (% PfCRT3D7 control) (PfCRT^3D7; [5]): 96 ± 4.6 % PfCRT3D7 control | PfCRT-mediated [3H]CQ transport, trans-stimulation (% PfCRT3D7 control) (PfCRT^3D7; [6]): 99 ± 2.7 % PfCRT3D7 control | PfCRT-mediated [3H]CQ transport, trans-stimulation (% PfCRTEcu1110 control) (PfCRT^Ecu1110 [2]; [5]): 99 ± 3.6 % PfCRTEcu1110 control | PfCRT-mediated [3H]CQ transport, trans-stimulation (% PfCRTEcu1110 control) (PfCRT^Ecu1110 [2]; [6]): 98 ± 4.3 % PfCRTEcu1110 control | [3H]CQ transport (% PfCRTDd2 control), trans-stimulation, PfCRTEcu1110 (PfCRT^Ecu1110 [2]; [7]): 30 ± 1.3 % PfCRTEcu1110 control | [3H]CQ transport (% PfCRTDd2 control), trans-stimulation, PfCRTEcu1110 (PfCRT^Ecu1110 [2]; [8]): 30 ± 1.4 % PfCRTEcu1110 control | PfCRT-mediated [3H]CQ transport, cis-inhibition (% PfCRTDd2 control) (PfCRT^Dd2 [3]; [test solute] = 0.5 mM): 30 ± 3.7 % PfCRTDd2 control | PfCRT-mediated [3H]CQ transport, cis-inhibition (% PfCRTDd2 control) (PfCRT^Dd2 [3]; [test solute] = 1 mM): 19 ± 0.7 % PfCRTDd2 control | PfCRT-mediated [3H]CQ transport, cis-inhibition (% PfCRTDd2 control) (PfCRT^Dd2 [3]; [test solute] = 2 mM): 11 ± 0.7 % PfCRTDd2 control | PfCRT-mediated [3H]CQ transport, cis-inhibition (% PfCRTEcu1110 control) (PfCRT^Ecu1110 [4]; [test solute] = 0.5 mM): 39 ± 2.5 % PfCRTEcu1110 control | PfCRT-mediated [3H]CQ transport, cis-inhibition (% PfCRTEcu1110 control) (PfCRT^Ecu1110 [4]; [test solute] = 1 mM): 31 ± 1.7 % PfCRTEcu1110 control | PfCRT-mediated [3H]CQ transport, cis-inhibition (% PfCRTEcu1110 control) (PfCRT^Ecu1110 [4]; [test solute] = 2 mM): 17 ± 0.8 % PfCRTEcu1110 control | [3H]CQ transport (% PfCRTEcu1110 control), cis-inhibition, PfCRTEcu1110 (PfCRT^Ecu1110 [4]; [test solute] = 0.5 mM): 12 ± 0.4 % PfCRTEcu1110 control | [3H]CQ transport (% PfCRTEcu1110 control), cis-inhibition, PfCRTEcu1110 (PfCRT^Ecu1110 [4]; [test solute] = 1 mM): 10 ± 0.2 % PfCRTEcu1110 control | [3H]CQ transport (% PfCRTEcu1110 control), cis-inhibition, PfCRTEcu1110 (PfCRT^Ecu1110 [4]; [test solute] = 2 mM): 5.0 ± 0.04 % PfCRTEcu1110 control
